Assay results: paper PMC3041267 (Angewandte Chemie (International ed. in English), 2009)

System: HDAC activity in HeLa cell nuclear extracts
Assay type: biochemical
Conditions: read-out: IC50, inhibition of HDAC activity in HeLa cell nuclear extracts; preliminary assessment, fluorescence assay

Which IC50 does the source give for `CCC(=O)CCCCC[C@@H]1NC(=O)[C@H]2CCCCN2C(=O)[C@H]([C@@H](C)CC)NC(=O)[C@H](Cc2cn(OC)c3ccccc23)NC1=O` [apicidin] here?
Its IC50 is at most 100 nM.
